In US20230107128A1, “SCREENING SYSTEM FOR HUMAN-TRANSFORMED CARTILAGE CELL LINE-BASED CARTILAGE DISEASE TREATMENT AGENTS” (LUGEN SCI CO., LTD., priority 2018, published 2023):
Entries after “also recorded” stand apart in the source; their conditions may differ. Read-outs that look alike come from different tables or passages of the source.

What was measured:
[1] = test system: human type II collagen fusion promoter (Col2a1 promoter); test: Luciferase reporter screening system in C28/I2-EC2P-fLuc-CN5 cell line; assay type: cell-based; details: for cartilage regeneration activity (luminescence) compared with Kartogenin; criterion equal to or higher than Kartogenin: 50 μM, 48 hours, screen of 37 natural products
Description: All the experimental groups for the verification of the screening system according to the present invention and the search for novel cartilage regeneration materials were prepared by dissolving the same in dimethyl sulfoxide (DMSO) at the same concentration of 20 mM. The cells to be analyzed were seeded and fixed into a white-bottom 96-well plate, which was a plate exclusively used for luminescence analysis, at an initial concentration of 10,000 cells per well 24 hours before the experiment. On the following day, the cells were subjected to starvation in serum-free culture fluid (DMEM/F12 media) for seven hours. After that, while the culture fluid was replaced with the serum culture fluid [DMEM/F12, 10% FBS, 1% penicillin, and streptomycin], the experimental groups on natural products at each 20 mM were diluted 1/400, treated repeatedly three times, and further cultured for 48 hours.
After further culturing the cells to be analyzed, which were treated with natural materials in above 5.1, for 48 hours, all the culture fluid was removed and replaced with a new culture fluid containing D-luciferin at a final concentration of 150 μg/ml and reacted at room temperature for five minutes. Then, the degree of light emission from each cell was measured by using the luminescence analysis function of the TECAN SPARK multi-reader.
By using the screening system for cartilage disease treatment agents according to the present invention, the pattern of changes in cartilage regeneration activity according to the treatment concentration of 2-AQCA was compared with the activity of Kartogenin, a positive control group of natural material.

C28/I2 cell line = assay type: cell-based, human
Description: To confirm the effect of 2-AQCA on inhibiting a cell growth rate and the presence of toxicity, the cells to be analyzed (C28/I2 cell line and chondrocytes isolated from osteoarthritis patients) were seeded and fixed at an initial concentration of 10,000 cells per well in a 96-well plate 24 hours before the experiment, and the cells were subjected to starvation in serum-free culture fluid for seven hours on the following next day. After that, while the culture fluid was replaced with a serum culture fluid containing 10% FBS, the experimental groups were treated repeatedly three times with Kartogenin and 2-AQCA at each concentration and further cultured for 48 hours. The cells were treated with the test materials at each concentration of 0, 3.125, 6.25, 12.5, and 25 μM, which had been used to verify the effect of treatment at each of the concentrations. Similarly, in order to equalize the experimental conditions, the treatment was performed so that the final concentration of DMSO was 0.25% in all the experimental groups. […] Then, the absorbance of each cell was measured at 450 nm by using a TECAN SPARK multi-reader.

Col2a1 = test: Rq-PCR of Col2a1 expression in C28/I2 micromass culture; assay type: cell-based, human; details: 10 μM, 14 days micromass culture
Description: (§1) C28/I2 cell lines were subjected to micromass culture in order to compare and examine the change in the expression of Col2a1 and Sox9, which are the representative cartilage differentiation markers, and Col10, which is a cartilage hypertrophy marker, by treatment with the complex functional natural material 2-AQCA during long-term culture for inducing cartilage differentiation. For this purpose, the C28/I2 cells cultured for three days were collected and a cell fluid was prepared at a concentration of 2×10^7 cells/ml, and then 10 μl of cells were taken and injected into the center of a 24-well plate, and fixed in an incubator of 37° C., 5% CO2 for two to three hours until all the cells were attached to the bottom. When all the cells were fixed, 500 μl of serum culture fluid (DMEM/F12, 10% FBS, 1% penicillin, and streptomycin) was added and further cultured for seven hours or more. […]
(§2) After completing the micromass culture for 14 days, RNA was isolated from each cell pellet by using TRIzol™, and cDNA was synthesized from the isolated RNA. The synthesized cDNA was compared and analyzed for expression of the corresponding gene through a real-time quantitative polymerase chain reaction (Rq-PCR) by using a specific primer for each gene. […]

Sox9 = test: Rq-PCR of Sox9 expression in C28/I2 micromass culture; assay type: cell-based, human; details: 10 μM, 14 days micromass culture
Description: as §1, §2

Col10a1 = test: Rq-PCR of Col10a1 expression in C28/I2 micromass culture; assay type: cell-based, human; details: 10 μM, 14 days micromass culture
Description: as §1, §2

[2] = C28/I2-EC2P-fLuc-CN5, drug 0 to 50 μM

SMILES | cartilage regeneration activity compared with Kartogenin ([1]; 25 μM) | cartilage regeneration activity (luminescence) compared with Kartogenin; criterion equal to or higher than Kartogenin [1] | cartilage regeneration activity compared with Kartogenin ([1]; concentration of less than 25 μM) | cell growth rate higher than that of Kartogenin (C28/I2 cell line; C28/I2, 6.25 μM) | cell growth rate higher than that of Kartogenin (C28/I2 cell line; C28/I2, 12.5 μM) | Col2a1 expression rate relative to the Kartogenin group (Col2a1) | Col2a1 expression rate relative to the negative control group (Col2a1) [times] | Sox9 expression relative to the negative control group (Sox9) | decrease in Col10a1 expression compared to the negative control group (Col10a1) | luciferase activity at 50 μM ([1]; C28/I2-EC2P-fLuc-CN5, 50 μM) | luciferase activity with increasing concentration [1, 2] | cytotoxicity indirectly suggested by the luciferase activity ([1]; high concentration (50 μM)) | luciferase activity compared with Kartogenin [1, 2]
O=C(O)c1ccc2c(c1)C(=O)c1ccccc1C2=O [2-AQCA, 2-anthraquinonecarboxylic acid] | slightly higher than that of Kartogenin | complies with the above conditions | somewhat lower than that of Kartogenin | about 11% | about 8.2% | about 4.2 times | 7.6 | at least 2.1 times | about 40% |  |  |  | 
O=C(O)c1ccccc1C(=O)Nc1ccc(-c2ccccc2)cc1 [Kartogenin] |  |  |  |  |  |  |  | insignificant increase | about 40% | decreases the luciferase activity | increased as the concentration of both drugs is increased | has cytotoxicity at a high concentration | 
Cn1ncc2c1-c1c(Oc3ccc(OCc4ccc5ccccc5n4)cc3)sc(C(N)=O)c1CC2 [TD-198946] |  | higher than that of Kartogenin |  |  |  |  |  |  |  |  | increased as the concentration of both drugs is increased; also recorded: continuously increases the luciferase activity |  | higher than that of Kartogenin
